Results from PubChem BioAssay (NCI).
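Where inhibition never reached the appropriate level, the endpoint shown equals the highest concentration tested. Otherwise, values were interpolated linearly from a five-concentration, 48-hour dose response in 96-well plates. Definition used: TGI = concentration required for complete inhibition of growth.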

Test system: P388 leukemia
Assay: NCI tumour cell line growth inhibition, 48 h

Compound: CCCCS(=N)(=O)CC[C@H](N)C(=O)O (stereo partly specified)
- TGI: 5 mM
